Assay type in all cases: cell-based
Assay [1] concerns Escherichia coli NIH JC-2. Briefly: MIC, standard method of Japanese Chemotherapy Academy. The note with it: Objected Strain 3: Escherichia coli NIH JC-2. The protocol: 1. Minimum Inhibitory Concentration (MIC) was measured in accordance with the standard method of Japanese Chemotherapy Academy (Chemotherapy, 29: 76-79, 1981).
Assay [2] relates to Helicobacter pylori ATCC 43629. Briefly: MIC, agar plating dilution (standard method of Japanese Chemotherapy Academy). The protocol: (§1) 1. Minimum Inhibitory Concentration (MIC) was measured in accordance with the standard method of Japanese Chemotherapy Academy (Chemotherapy, 29: 76-79, 1981). Sensitivity was measured with an agar plating dilution using Brain-Heart Infusion agar (Difco Co.) which was added 0.1% of cyclodextrin. […] of the solutions of the compounds which were obtained in examples of the present invention was prepared by dissolving in dimethylsulfoxide. […] Each of 1 ml of those prepared solutions was dispensed in share, after sterilization, 9 ml of sensitivity measuring medium which is kept at 50° C. was added to each, and they were sufficiently mixed. The mixture was used as a plate for measuring sensitivity. Brain Heart Infusion agar medium (Difco Co.), which was added 0.1% of cyclodextrin, was used as bacteria growing medium, and was cultured under microair at 37° C. for three days, and the number of bacteria thereof was adjusted to about 106/ml. This was used as a bacterial solution for inoculation. The medium was painted in each square about 2 cm with nichromic line loop. The medium was cultured under microair for three days at 37° C.

For assay [3], the system named is Helicobacter pylori ATCC 43504. The description is as above. The protocol: as §1
Where [4] appears, read: Objected Strain 2: Helicobacter pylori ATCC 43629.
[5] abbreviates: Objected Strain 1: Helicobacter pylori ATCC 43504.
Where [6] appears, read: ATCC43629, Objected Strain 2: Helicobacter pylori ATCC 43629, read-out: MIC.
Setting [7] is: ATCC43504, Objected Strain 1: Helicobacter pylori ATCC 43504, read-out: MIC.

Values after ≈ are worked out from the molar mass of the structure shown. Where two headings read alike, the source gives them in different places.

`Cl.N=C(N)NC[C@H]1CC[C@H](C(=O)Oc2ccccc2-c2ccccc2)CC1` [Compound 2, trans4-guanidinomethyl cyclohexane carboxylic acid (2-phenylphenylester)hydrochloride, reference compound]: the MIC (commonly the lowest concentration that inhibits growth of the organism) in assay [1] is more than 25 µg/mL; in assay [2] (setting [4]) it was 25 µg/mL; in assay [3] (setting [5]), 25 µg/mL.
Take `Cl.N=C(N)NC[C@H]1CC[C@H](C(=O)Oc2cccc3ccccc23)CC1` [Compound 3, trans-4-guanidinomethyl cyclohexane carboxylic acid (1-naphthylester)hydrochloride, reference compound]: the MIC in assay [1], in assay [2] (setting [4]) and in assay [3] (setting [5]) was more than 25 µg/mL throughout.
Take `Cl.N=C(N)NC[C@H]1CC[C@H](C(=O)Oc2ccc3ccccc3c2)CC1` [Compound 4, trans-4-guanidinomethyl cyclohexane carboxylic acid (2-naphthylester)hydrochloride, reference compound]: the results for the MIC in assay [1], in assay [2] (setting [4]) and in assay [3] (setting [5]) were more than 25 µg/mL, 25 µg/mL and 25 µg/mL, respectively.
As to `N=C(N)NCC1CCC(C(=O)Oc2ccc(C(=O)OCc3ccccc3)cc2)CC1` (stereo not drawn) [Compound 5, reference compound], the MIC in assay [1] (NIHJC2, read-out: MIC) was more than 25 µg/mL; in assay [2] (setting [6]) it was 6.25 µg/mL (≈ 15.3 µM); in assay [3] (setting [7]) it was 12.5 µg/mL (≈ 30.5 µM).
For `CCc1ccc(OC(=O)C2CCC(CNC(=N)N)CC2)cc1` (stereo not drawn) [Compound 6, reference compound] the same measures were more than 25 µg/mL, 25 µg/mL (≈ 82.4 µM) and 25 µg/mL (≈ 82.4 µM).
On to `CC(C)(C)c1ccc(OC(=O)C2CCC(CNC(=N)N)CC2)cc1` (stereo not drawn) [Compound 7, reference compound], for which the MIC in assay [1] (NIHJC2, read-out: MIC) is more than 25 µg/mL; in assay [2] (setting [6]), 12.5 µg/mL (≈ 37.7 µM); in assay [3] (setting [7]), 25 µg/mL (≈ 75.4 µM).
As for `Cl.N=C(N)NC[C@H]1CC[C@H](C(=O)Oc2cccc(-c3ccccc3)c2)CC1` [Example 1, trans-4-guanidinomethyl cyclohexane carboxylic acid (3-phenylphenylester).hydrochloride], the MIC is more than 25 µg/mL in assay [1], 6.25 µg/mL in assay [2] (setting [4]) and 12.5 µg/mL in assay [3] (setting [5]).
The corresponding values for `Cl.N=C(N)NC[C@H]1CC[C@H](C(=O)Oc2ccc(-c3ccc(Br)cc3)cc2)CC1` [Example 4, trans-4-guanidinomethyl cyclohexane carboxylic acid [4-(4-bromophenyl)phenylester].hydrochloride] are more than 25 µg/mL, 0.39 µg/mL and 1.56 µg/mL.
The corresponding values for `COc1ccc(-c2ccc(OC(=O)[C@H]3CC[C@H](CNC(=N)N)CC3)cc2)cc1.Cl` [Example 5, trans-4-guanidinomethyl cyclohexane carboxylic acid [4-(4-methoxyphenyl)phenylester].hydrochloride] are more than 25 µg/mL, 1.56 µg/mL and 3.13 µg/mL.
For `Cl.N=C(N)NC[C@H]1CC[C@H](C(=O)Oc2ccc(-c3ccccc3)cc2Cl)CC1` [Example 6, trans-4-guanidinomethyl cyclohexane carboxylic acid (2-chloro-4-phenylphenylester).hydrochloride] the same measures were more than 25 µg/mL, 1.56 µg/mL and 6.25 µg/mL.
As for `Cl.N#Cc1ccc(-c2ccc(OC(=O)[C@H]3CC[C@H](CNC(=N)N)CC3)cc2)cc1` [Example 7, trans4-guanidinomethyl cyclohexane carboxylic acid [4-(4-cyanophenyl)phenylester].hydrochloride], the MIC is more than 25 µg/mL in assay [1], 3.13 µg/mL in assay [2] (setting [4]) and 3.13 µg/mL in assay [3] (setting [5]).
Take `Cl.N=C(N)NC[C@H]1CC[C@H](C(=O)Oc2c(C(=O)OCc3ccccc3)cccc2-c2ccccc2)CC1` [Example 9, trans-4-guanidinomethyl cyclohexane carboxylic acid (2-benzyloxycarbonyl-6-phenylphenylester).hydrochloride]: the MIC in assay [1] was more than 25 µg/mL; in assay [2] (setting [4]), 3.13 µg/mL; in assay [3] (setting [5]), 6.25 µg/mL.
For `CS(=O)(=O)O.N=C(N)NC[C@H]1CC[C@H](C(=O)Oc2c(C(=O)OCc3ccc(F)cc3)cccc2-c2ccccc2)CC1` [Example 10, trans-4-guanidinomethyl cyclohexane carboxylic acid [2-(4-fluorobenzyloxycarbonyl)-6-phenylphenylester].methansulfonate] the same measures were more than 25 µg/mL, 6.25 µg/mL and 6.25 µg/mL.
For `CS(=O)(=O)O.N=C(N)NC[C@H]1CC[C@H](C(=O)Oc2c(C(=O)OCc3ccc(F)cc3)cc(Br)cc2-c2ccccc2)CC1` [Example 11, trans-4-guanidinomethyl cyclohexane carboxylic acid [4-bromo-2-(4-fluorobenzyloxycarbonyl)-6-phenylphenylester].methanosulforate] the same measures were more than 25 µg/mL, 6.25 µg/mL and 6.25 µg/mL.
The corresponding values for `Cl.N=C(N)NC[C@H]1CC[C@H](C(=O)Oc2c(Cl)cc(Cl)cc2-c2ccccc2)CC1` [Example 12, trans-4-guanidinomethyl cyclohexane carboxylic acid (2,4-dicloro-6-phenylphenylester).hydrochloride] are more than 25 µg/mL, 3.13 µg/mL and 3.13 µg/mL.
Regarding `Cl.N=C(N)NC[C@H]1CC[C@H](C(=O)Oc2c(Cl)cc(-c3ccccc3)cc2Cl)CC1` [Example 13, trans-4-guanidinomethyl cyclohexane carboxylic acid (2,6-dichloro-4-phenylphenylester).hydrochloride], the MIC was more than 25 µg/mL in assay [1], 12.5 µg/mL in assay [2] (setting [4]) and 12.5 µg/mL in assay [3] (setting [5]).
As to `Cl.N=C(N)NC[C@H]1CC[C@H](C(=O)Oc2ccc(-c3ccc([N+](=O)[O-])cc3)cc2)CC1` [Example 22, trans-4-guanidinomethyl cyclohexane carboxylic acid [4-(4-nitrophenyl)phenylester].hydrochloride], the MIC in assay [1] was more than 25 µg/mL; in assay [2] (setting [4]), 3.13 µg/mL; in assay [3] (setting [5]) it was 1.56 µg/mL.
For `Cl.N=C(N)NC[C@H]1CC[C@H](C(=O)Oc2ccc(-c3ccc(F)cc3)cc2)CC1` [Example 27, trans-4-guanidinomethyl cyclohexane carboxylic acid[4-(4-fluorophenyl)phenylester].hydrochloride] the same measures were more than 25 µg/mL, 1.56 µg/mL and 0.78 µg/mL.
The corresponding values for `Cl.N=C(N)NC[C@H]1CC[C@H](C(=O)Oc2c(Cl)cc(Cl)c3ccccc23)CC1` [Example 29, trans-4-guanidinomethyl cyclohexane carboxylic acid (2,4-dichloro-1-naphthylester).hydrochloride] are more than 25 µg/mL, 12.5 µg/mL and 6.25 µg/mL.
Consider `Cl.N=C(N)NC[C@H]1CC[C@H](C(=O)Oc2c(Cl)cc(Cl)c3ccccc23)CC1` [Example 30, trans-4-guanidinomethyl cyclohexane carboxylic acid (2,4-dichloro-1-naphthyleter).hydrochloride], for which the figures for the MIC in assay [1], in assay [2] (setting [4]) and in assay [3] (setting [5]) were more than 25 µg/mL, 3.13 µg/mL and 3.13 µg/mL, respectively.
As for `Cl.N=C(N)NC[C@H]1CC[C@H](C(=O)Oc2ccc3cc(Br)ccc3c2)CC1` [Example 31, trans-4-guanidinomethyl cyclohexane carboxylic acid (6-bromo-2-naphthyl ester).hydrochloride], the minimum inhibitory concentration (MIC) in assay [1] is more than 25 µg/mL; in assay [2] (setting [4]) it was 0.78 µg/mL; in assay [3] (setting [5]) it was 3.13 µg/mL.
The corresponding values for `Cl.N=C(N)NC[C@H]1CC[C@H](C(=O)Oc2ccc(C3CCCCC3)cc2)CC1` [Example 32, trans-4-guanidinomethyl cyclohexane carboxylic acid (4-cyclohexyphenylester).hydrochloride] are more than 25 µg/mL, 0.78 µg/mL and 3.13 µg/mL.
For `Cl.N=C(N)NC[C@H]1CC[C@H](C(=O)Oc2ccc(Cc3ccccc3)cc2)CC1` [Example 33, trans-4-guanidinomethyl cyclohexane carboxylic acid (4-benzylphenylester).hydrochloride] the same measures were more than 25 µg/mL, 12.5 µg/mL and 12.5 µg/mL.
Consider `CC(C)(c1ccccc1)c1ccc(OC(=O)[C@H]2CC[C@H](CNC(=N)N)CC2)cc1.Cl` [Example 34, trans-4-guanidinomethyl cyclohexane carboxylic acid[4-(1-methyl-1-phenylethyl)phenylester].hydrochloride], for which the MIC in assay [1] was more than 25 µg/mL; in assay [2] (setting [4]), 25 µg/mL; in assay [3] (setting [5]), 25 µg/mL.

These data come from US6831190B1, “Guanidinomethyl cyclohexane carboxylic acid ester derivatives” (Teikoku Chemical Industries Co., Ltd., priority 1994, dated 2004).
